Assay results reported in patent publication US11707467B2, “(17-ß)-3-oxoandrost-4-en-17YL tridecanoate compositions and methods of their preparation and use” (Lipocine Inc., priority 2014, dated 2023).

Experiments:
[1] = tested on: developing oocytes in female mice; details: cited from earlier work
male and female mice = details: cited from earlier work
[2] = Pharmacokinetic study: % responders by serum testosterone Cavg and Cmax; assay type: in vivo, human
Experimental: Some of the dosage forms of compositions described herein comprising or prepared from substantially pure (17-β)-3-Oxoandrost-4-en-17-yl tridecanoate were administered to human subjects as a single dose of the esters to subjects. Serial blood samples were drawn at predetermined time (e.g., t=0, 12, 24, etc.) and analyzed for testosterone concentration using a validated HPLC-MS/MS analytical method. The Cmax, Cavg t1-t2, Tmax and AUCt1-t2 are calculated for testosterone in the serum of the subjects. Pharmacokinetic and statistical analyses are performed on the data obtained from the subjects. The pharmacokinetic parameters are defined as follows: • AUCt1-t2: The area under the serum concentration versus time curve, from time t1 (in hours) to time t2 (in hours) measurable concentration of the administered drug, as calculated by the linear trapezoidal method. […] This represents the average serum testosterone level over a period starting from time 0 (zero) hours to […] post-administration of dose. It should also be noted that Cavg t0-t24 is also referred to as simply “Cavg” in this invention. • Cavg t0-t12: The average serum concentration of testosterone obtained by dividing the […] value by 12. This represents the average serum testosterone level over a period starting from time 0 (zero) hours to […] post-administration of dose. • Cavg t12-t24: The average serum concentration of testosterone obtained by dividing the AUCt12-t24 value by 12. This represents the average serum testosterone level over the second half of the 24-hours post-administration of dose period; i.e., from a period starting from time 12 hours to time 24 hours post-administration of dose.

[3] = starting 100 (±50) mg T equivalent QD or BID, same formulation
[4] = starting 300 (±50) mg T equivalent QD, 12-20% API, 55-70% lipophilic additive, 12-20% hydrophilic additive
[5] = starting 350 (±100) mg T equivalent BID, same formulation
[6] = starting 1000 (±200) mg T equivalent QD or BID, same formulation

Row | SMILES | Effect on developing oocytes [1] | Carcinogenicity (male and female mice) | % Responders with Cave t0-t24 (ng/dL) 300-1140 [2, 3] | % Responders with Cmax (ng/dL) 1800-2500 [2, 3] | % Responders with Cmax (ng/dL) >2500 [2, 3] | % Responders with Cmax (ng/dL) ≤1500 [2, 3] | % Responders with Cave t0-t24 (ng/dL) 300-1140 [2, 4] | % Responders with Cmax (ng/dL) 1800-2500 [2, 4] | % Responders with Cmax (ng/dL) >2500 [2, 4] | % Responders with Cmax (ng/dL) ≤1500 [2, 4] | % Responders with Cave t0-t24 (ng/dL) 300-1140 [2, 5] | % Responders with Cmax (ng/dL) 1800-2500 [2, 5] | % Responders with Cmax (ng/dL) >2500 [2, 5] | % Responders with Cmax (ng/dL) ≤1500 [2, 5] | % Responders with Cave t0-t24 (ng/dL) 300-1140 [2, 6] | % Responders with Cmax (ng/dL) 1800-2500 [2, 6] | % Responders with Cmax (ng/dL) >2500 [2, 6] | % Responders with Cmax (ng/dL) ≤1500 [2, 6]
1 | C[C@]12CCC(=O)C=C1CC[C@@H]1[C@@H]2CC[C@]2(C)C(=O)CC[C@@H]12 [androstenedione] | induces abnormalities in morphology and function of developing oocytes | carcinogenic |  |  |  |  |  |  |  |  |  |  |  |  |  |  |  | 
2 | CCCCCCCCCCCCC(=O)O[C@H]1CC[C@H]2[C@@H]3CCC4=CC(=O)CC[C@]4(C)[C@H]3CC[C@]12C [(17-β)-3-Oxoandrost-4-en-17-yl tridecanoate] |  |  | 50-65% | 0-5% | 0-1% | 100% | 100% | 0-5% | 0-1% | 100% | 100% | 0-5% | 0-1% | 100% | 100% | 20-30% | 60-80% | 0%
